# Results published in patent US6562954B1, “Method for producing oligosaccharide, and novel oligosaccharide and pharmaceutical composition containing the same” (Seikagaku Corporation, priority 1999, dated 2003).
# B1: OVA: ovalbumin, positive control in the antigenicity test (protein, UniProt P01012 2-386, looked up)
# Ovalbumin: GSIGAASMEFCFDVFKELKVHHANENIFYCPIAIMSALAMVYLGAKDSTRTQINKVVRFDKLPGFGDSIEAQCGTSVNVHSSLRDILNQITKPNDVYSFSLASRLYAEERYPILPEYLQCVKELYRGGLEPINFQTAADQARELINSWVESQTNGIIRNVLQPSSVDSQTAMVLVNAIVFKGLWEKAFKDEDTQAMPFRVTEQESKPVQMMYQIGLFRVASMASEKMKILELPFASGTMSMLVLLPDEVSGLEQLESIINFEKLTEWTSSNVMEERKIKVYLPRMKMEEKYNLTSVLMAMGITDVFSSSANLSGISSAESLKISQAVHAAHAEINEAGREVVGSAEAGVDAASVSEEFRADHPFLFCIKHIATNAVLFFGRCVSP
# Assays:
# normal mice = assay type: in vivo; conditions: for body weight thereafter: all mice, 2,000 mg/kg i.v. once, after the next day up to 14 days; for body weight on the next day of the administration: male mice, 2,000 mg/kg i.v. once; for general condition immediately after the administration: mice, 2,000 mg/kg i.v. once; for death: mice, male and female groups, 2,000 mg/kg i.v. once, observed 14 days
# Experimental: From the above results, the least fatal dose of K4 and G4L4 for single intravenous administration is considered to be 2,000 mg/kg or higher. Therefore, LD50 of K4 and G4L4 for single intravenous administration exceeds 2,000 mg/kg for both of male and female mice.
# Guinea pigs = assay: Test for antigenicity in guinea pigs (active systemic anaphylaxis); assay type: in vivo; conditions: sensitized s.c., induced i.v.
# Experimental: Guinea pigs were sensitized by 3 times of subcutaneous administration of K4 or G4L4 alone or an emulsion of K4 with an immunostimulant, Freund's complete adjuvant (FCA). K4 or G4L4 was intravenously administered to the animals 12 days after the final sensitization to induce active systemic anaphylaxis. As a positive control, a similar test was performed for ovalbumin (OVA).
# The results of the above test were shown in Table 1 together with the doses of the test substances. […] From the above results, K4 and G4L4 are not considered to induce active systemic anaphylaxis in guinea pigs.
# guinea pig neutrophils = assay: Effect on O2− generation by guinea pig neutrophils induced by FMLP stimulation; assay type: cell-based; conditions: for relative inhibition rate to the control of O2− generation: 1 mg/ml, preincubation 37° C. 1 hour; for suppression of O2− generation by neutrophils (in words): 0.01 to 1 mg/ml
# Experimental: A 0.2% aqueous solution of glycogen in physiological saline was autoclaved, and 20 ml of the solution was intraperitoneally administered to a Hartley female guinea pig. The animal was killed by exsanguination 16 hours later, 20 ml of physiological saline containing 10 U/ml of heparin was injected into the abdominal cavity, and the peritoneal exudate was collected. The exudate was centrifuged at 1000 rpm for 10 minutes on a desk-top centrifugal machine, and purified water was added to the precipitate to cause hemolysis for 30 seconds. The solution was made isotonic again with Hank's balanced salt solution at 2-fold concentration, and centrifuged at 1000 rpm for 10 minutes. A procedure of resuspension of the precipitates in the Hank's balanced salt solution and centrifugation was repeated twice to obtain neutrophils. The obtained guinea pig neutrophils were suspended in Hank's balanced salt solution, and the leukocyte number was counted by a blood cell counter (Sysmex K-2000). A suspension diluted with Hank's balanced salt solution to 2×10^6 cells/ml was used for the experiment as a cell suspension.
# 1 ml of the-cell suspension and 10 μl of a solution of test substance at a known concentration (in a control, keratan sulfate oligosaccharide was not added) were mixed, preincubated at 37° C. for 1 hour, and 50 μl of 1.6 mM cytochrome C solution and 100 μl of 0.1 mM FMLP solution were successively added thereto and mixed. The mixture was incubated at 37° C. for 10 minutes, and the reaction was stopped by cooling with ice. The reaction mixture was centrifuged at 3000 rpm for 5 minutes, and absorbance of the supernatant was measured at a wavelength of 550 nm. All of the aforementioned procedures except for the incubation were performed with ice cooling.
Molecule,body weight thereafter (normal mice),body weight on the next day of the administration (normal mice),general condition immediately after the administration (normal mice),death (normal mice),anaphylatic reaction after induction (Guinea pigs),relative inhibition rate to the control of O2− generation (guinea pig neutrophils) [%],suppression of O2− generation by neutrophils (in words) (guinea pig neutrophils)
"CC(=O)N[C@@H]1[C@@H](O)[C@H](O[C@@H]2O[C@H](COS(=O)(=O)[O-])[C@H](O)[C@H](O[C@@H]3O[C@H](COS(=O)(=O)[O-])[C@@H](O)[C@H](O)[C@H]3NC(C)=O)[C@H]2O)[C@@H](COS(=O)(=O)[O-])O[C@H]1O.[Na+].[Na+].[Na+] [Compound G4L4, O-(2-Acetamido-2-deoxy-6-O-sulfo-β-D-glucopyranosyl)-(1→3)-O-(6-O-sulfo-β-D-galactopyranosyl)-(1→4)-O-2-acetamido-2-deoxy-6-O-sulfo-β-D-glucopyranose Trisodium Salt]",favorable body weight increase,slight weight loss,paralytic gait was observed for every mouse,No death was observed,No anaphylatic reaction was observed,57.1,markedly suppressed
"CC(=O)N[C@H]1[C@H](O[C@@H]2[C@@H](O)[C@H](O)O[C@H](COS(=O)(=O)[O-])[C@@H]2O)O[C@H](COS(=O)(=O)[O-])[C@@H](O)[C@@H]1O.[Na+].[Na+] [Compound K4, O-(2-Acetamido-2-deoxy-6-O-sulfo-β-D-glucopyranosyl)-(1→3)-O-6-O-sulfo-β-D-galactopyranose Disodium Salt]",favorable body weight increase,slight weight loss,paralytic gait was observed for every mouse,No death was observed,No anaphylatic reaction was observed,44.7,markedly suppressed
"CC(=O)NC1C(O)OC(COS(=O)(=O)[O-])C(OC2OC(COS(=O)(=O)[O-])C(O)C(OC3OC(COS(=O)(=O)[O-])C(OC4OC(COS(=O)(=O)[O-])C(O)C(O)C4O)C(O)C3NC(C)=O)C2O)C1O.[Na+].[Na+].[Na+].[Na+] (centres unmarked) [Compound L4L4, reference compound]",–,–,–,–,–,50.6,markedly suppressed
B1,–,–,–,–,showed anaphylatic reaction,–,–
